Where a name gives a salt, the structure may show the parent alone.
The molecules below were run against T1, HCV polymerase (Hepatitis C virus genotype 1b, UniProt P26663) (assay: biochemical). Conditions: not given.
T1 construct: a region encoding NS5B (J Virol 1991 March, 65(3), 1105-13, 544 amino acids after deletion of 47 amino acids on the C-terminal); 6xHis (C); made in house; host or cells: Escherichia coli
T1 sequence (P26663 2420-2963): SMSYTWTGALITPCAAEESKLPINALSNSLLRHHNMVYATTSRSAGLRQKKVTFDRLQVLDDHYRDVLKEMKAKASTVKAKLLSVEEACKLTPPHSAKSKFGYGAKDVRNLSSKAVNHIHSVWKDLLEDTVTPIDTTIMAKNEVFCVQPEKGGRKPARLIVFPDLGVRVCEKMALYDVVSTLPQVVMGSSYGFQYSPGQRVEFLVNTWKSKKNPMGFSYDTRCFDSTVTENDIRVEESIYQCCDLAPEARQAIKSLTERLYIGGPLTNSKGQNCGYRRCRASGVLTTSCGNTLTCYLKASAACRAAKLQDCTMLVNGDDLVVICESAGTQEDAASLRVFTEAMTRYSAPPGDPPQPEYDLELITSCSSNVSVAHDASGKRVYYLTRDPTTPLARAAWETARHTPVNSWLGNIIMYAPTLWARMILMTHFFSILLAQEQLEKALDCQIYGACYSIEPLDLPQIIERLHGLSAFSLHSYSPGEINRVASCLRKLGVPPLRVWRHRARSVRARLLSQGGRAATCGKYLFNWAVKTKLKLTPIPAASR
Design: species or system HCV BK strain
Procedure, shortened: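 His-tagged NS5B (BK strain, 47-aa C-terminal deletion, E. coli-expressed) at 0.5 μg/ml copied 5 μg/ml run-off RNA bearing the HCV 3′ UTR with 2 μM UTP plus [3H]UTP, 50 μM ATP/GTP, in pH 7.5 Tris with 5 mM MgCl2, 25 °C, 90 min. TCA-precipitated RNA was counted and IC50 calculated.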
With `CC(=O)N(CCN1CCCCC1)c1cccc2c1OCCn1c-2c(C2CCCCC2)c2ccc(C(=O)O)cc21` [Example 2-485, 4-{N-acetyl-N-[2-(piperidin-1-yl)ethyl]amino}-12-cyclohexyl-6,7-dihydro-5-oxa-7a-azadibenzo[a,e]azulene-9-carboxylic acid] the IC50 was < 100 nM.
For `CN(CC(=O)N1CCCCC1)c1cccc2c1OCCn1c-2c(C2CCCCC2)c2ccc(C(=O)O)cc21` [Example 2-486, 12-cyclohexyl-4-{N-methyl-N-[2-oxo-2-(piperidin-1-yl)ethyl]amino}-6,7-dihydro-5-oxa-7a-azadibenzo[a,e]azulene-9-carboxylic acid], the IC50 was < 100 nM.
`COc1ccc2c(c1)OCCn1c-2c(C2CCCCC2)c2ccc(C(=O)NC3(C(=O)Nc4ccc(S(=O)(=O)O)cc4)CCC3)cc21` [Example 2-523, 4-({1-[(12-cyclohexyl-3-methoxy-6,7-dihydro-5-oxa-7a-azadibenzo[a,e]azulene-9-carbonyl)amino]cyclobutanecarbonyl}amino)benzenesulfonic acid] was tested, and the IC50 was < 100 nM.
For `COc1ccc2c(c1)OCCn1c-2c(C2CCCCC2)c2ccc(C(=O)N[C@@H](Cc3ccc(O)cc3)C3=NC(C)(C)C(=O)O3)cc21` [Example 2-524, N—[(S)-1-(4,4-dimethyl-5-oxo-4,5-dihydrooxazol-2-yl)-2-(4-hydroxyphenyl)ethyl]-12-cyclohexyl-3-methoxy-6,7-dihydro-5-oxa-7a-azadibenzo[a,e]azulene-9-carboxamide], the IC50 was < 100 nM.
For `COc1ccc2c(c1)OCCn1c-2c(C2CCCCC2)c2ccc(C(=O)N[C@@H](Cc3ccc(OCc4ccccc4)cc3)c3n[nH]c(C)n3)cc21` [Example 2-525, N—[(S)-2-(4-benzyloxyphenyl)-1-(5-methyl-1H-1,2,4-triazol-3-yl)ethyl]-12-cyclohexyl-3-methoxy-6,7-dihydro-5-oxa-7a-azadibenzo[a,e]azulene-9-carboxamide], the IC50 was < 100 nM.
With `COc1ccc2c(c1)OCCn1c-2c(C2CCCCC2)c2ccc(C(=O)N[C@@H](Cc3ccc(O)cc3)c3n[nH]c(C)n3)cc21` [Example 2-526, N—[(S)-2-(4-hydroxyphenyl)-1-(5-methyl-1H-1,2,4-triazol-3-yl)ethyl]-12-cyclohexyl-3-methoxy-6,7-dihydro-5-oxa-7a-azadibenzo[a,e]azulene-9-carboxamide] the IC50 was < 100 nM.
For `CNC(=O)COc1ccc2[nH]c(C3(NC(=O)c4ccc5c(C6CCCCC6)c6n(c5c4)CCOc4cc(OC)ccc4-6)CCC3)nc2c1` [Example 2-527, N-[1-(5-methylcarbamoylmethoxy-1H-benzimidazol-2-yl)cyclobutyl]-12-cyclohexyl-3-methoxy-6,7-dihydro-5-oxa-7a-azadibenzo[a,e]azulene-9-carboxamide], the IC50 was < 100 nM.
For `COc1ccc2c(c1)OCCn1c-2c(C2CCCCC2)c2ccc(C(=O)NC3(C(=O)Nc4ccc(/C=C(\C)C(=O)O)cc4)CCC3)cc21` [Example 2-528, (E)-3-[4-({1-[(12-cyclohexyl-3-methoxy-6,7-dihydro-5-oxa-7a-azadibenzo[a,e]azulene-9-carbonyl)amino]cyclobutanecarbonyl}amino)phenyl]-2-methylacrylic acid], the IC50 was < 100 nM.
With `COc1ccc2c(c1)OCCn1c-2c(C2CCCCC2)c2ccc(C(=O)NC3(C(=O)Nc4ccc(/C(C)=C/C(=O)O)cc4)CCC3)cc21` [Example 2-529, (E)-3-[4-({1-[(12-cyclohexyl-3-methoxy-6,7-dihydro-5-oxa-7a-azadibenzo[a,e]azulene-9-carbonyl)amino]cyclobutanecarbonyl}amino)phenyl]but-2-enoic acid] the IC50 was < 100 nM.
For `COc1ccc2c(c1)OCCn1c-2c(C2CCCCC2)c2ccc(C(=O)NC3(C(=O)Nc4ccc(/C=C/C(=O)O)cc4OCCOCc4ccccc4)CCC3)cc21` [Example 2-530, (E)-3-[3-(2-benzyloxyethoxy)-4-({1-[(12-cyclohexyl-3-methoxy-6,7-dihydro-5-oxa-7a-azadibenzo[a,e]azulene-9-carbonyl)amino]cyclobutanecarbonyl}amino)phenyl]acrylic acid], the IC50 was < 100 nM.
For `COc1ccc2c(c1)OCCn1c-2c(C2CCCCC2)c2ccc(C(=O)NC3(C(=O)Nc4ccc(/C=C/C(=O)O)c(OC)c4)CCC3)cc21` [Example 2-531, (E)-3-[4-({1-[(12-cyclohexyl-3-methoxy-6,7-dihydro-5-oxa-7a-azadibenzo[a,e]azulene-9-carbonyl)amino]cyclobutanecarbonyl}amino)-2-methoxyphenyl]acrylic acid], the IC50 was < 100 nM.
In the case of `COC[C@](C)(NC(=O)c1ccc2c(C3CCCCC3)c3n(c2c1)CCOc1cc(OC)ccc1-3)C(=O)O` [Example 2-532, (S)-2-[(12-cyclohexyl-3-methoxy-6,7-dihydro-5-oxa-7a-azadibenzo[a,e]azulene-9-carbonyl)amino]-3-methoxy-2-methylpropionic acid], the IC50 is reported as < 100 nM.
In the case of `CCn1c([C@H](Cc2ccc(O)cc2)NC(=O)c2ccc3c(C4CCCCC4)c4n(c3c2)CCOc2cc(OC)ccc2-4)n[nH]c1=O` [Example 2-533, N—[(S)-1-(4-ethyl-5-oxo-4,5-dihydro-1H-1,2,4-triazol-3-yl)-2-(4-hydroxyphenyl)ethyl]-12-cyclohexyl-3-methoxy-6,7-dihydro-5-oxa-7a-azadibenzo[a,e]azulene-9-carboxamide], the IC50 is reported as < 100 nM.
For `O=C(O)c1ccc2c(C3CCCCC3)c3n(c2c1)CCOc1c(-c2ccccc2/C=C/C(=O)N2CCCCC2)cccc1-3` [Example 2-534, 12-cyclohexyl-4-{2-[(E)-3-oxo-3-(piperidin-1-yl)propenyl]phenyl}-6,7-dihydro-5-oxa-7a-azadibenzo[a,e]azulene-9-carboxylic acid], the IC50 was < 100 nM.
For `O=C(O)c1ccc2c(C3CCCCC3)c3n(c2c1)CCOc1c(-c2ccccc2CCC(=O)N2CCCCC2)cccc1-3` [Example 2-535, 12-cyclohexyl-4-{2-[3-oxo-3-(piperidin-1-yl)propyl]phenyl}-6,7-dihydro-5-oxa-7a-azadibenzo[a,e]azulene-9-carboxylic acid], the IC50 was < 100 nM.
`O=C(O)c1ccc2c(C3CCCCC3)c3n(c2c1)CCOc1c(-c2ccccc2CCCN2CCCCC2)cccc1-3` [Example 2-536, 12-cyclohexyl-4-{2-[3-(piperidin-1-yl)propyl]phenyl}-6,7-dihydro-5-oxa-7a-azadibenzo[a,e]azulene-9-carboxylic acid monohydrochloride] was tested, and the IC50 was < 100 nM.
For `COC[C@](C)(NC(=O)c1ccc2c(C3CCCCC3)c3n(c2c1)CCOc1cc(OC)ccc1-3)C(=O)Nc1ccc(/C=C/C(=O)O)cc1` [Example 2-537, (E)-3-{4-((S)-2-[(12-cyclohexyl-3-methoxy-6,7-dihydro-5-oxa-7a-azadibenzo[a,e]azulene-9-carbonyl)amino]-3-methoxy-2-methylpropionylamino}phenyl)acrylic acid], the IC50 was < 100 nM.
With `COc1ccc2c(c1)OCCn1c-2c(C2CCCCC2)c2ccc(C(=O)N[C@@H](Cc3ccc(OCc4ccccc4)cc3)C3OCCO3)cc21` [Example 2-538, N—[(S)-2-(4-benzyloxyphenyl)-1-(1,3-dioxolan-2-yl)ethyl]-12-cyclohexyl-3-methoxy-6,7-dihydro-5-oxa-7a-azadibenzo[a,e]azulene-9-carboxamide] the IC50 was < 100 nM.
In the case of `CC[N+](CC)(CC)Cc1ccc(CC(NC(=O)c2ccc3c(C4CCCCC4)c4n(c3c2)CCOc2cc(OC)ccc2-4)C(=O)OC)cc1` (stereo not drawn) [Example 2-539, N-(4-{2-[(12-cyclohexyl-3-methoxy-6,7-dihydro-5-oxa-7a-azadibenzo[a,e]azulene-9-carbonyl)amino]-2-(methoxycarbonyl)ethyl}benzyl)-N,N,N-triethylammonium chloride], the IC50 is reported as < 100 nM.
In the case of `COc1ccc2c(c1)OCCn1c-2c(C2CCCCC2)c2ccc(C(=O)NC3(C(=O)Nc4ccc5oc(=O)ccc5c4)CCC3)cc21` [Example 2-541, N-[1-(2-oxo-2H-chromen-6-ylcarbamoyl)cyclobutyl]-12-cyclohexyl-3-methoxy-6,7-dihydro-5-oxa-7a-azadibenzo[a,e]azulene-9-carboxamide], the IC50 is reported as < 100 nM.
In the case of `COc1ccc2c(c1)OCCn1c-2c(C2CCCCC2)c2ccc(C(=O)N[C@@H](Cc3ccc(OCc4ccccc4)cc3)c3noc(C)n3)cc21` [Example 2-542, N—[(S)-2-(4-benzyloxyphenyl)-1-(5-methyl-1,2,4-oxadiazol-3-yl)ethyl]-12-cyclohexyl-3-methoxy-6,7-dihydro-5-oxa-7a-azadibenzo[a,e]azulene-9-carboxamide], the IC50 is reported as < 100 nM.
For `COc1ccc2c(c1)OCCn1c-2c(C2CCCCC2)c2ccc(C(=O)NC3(C(=O)Nc4ccc(/C=C/C(N)=O)cc4)CCC3)cc21` [Example 2-543, N-{1-[4-((E)-2-carbamoylvinyl)phenylcarbamoyl]cyclobutyl}-12-cyclohexyl-3-methoxy-6,7-dihydro-5-oxa-7a-azadibenzo[a,e]azulene-9-carboxamide], the IC50 was < 100 nM.
In the case of `CNC(=O)/C=C/c1ccc(NC(=O)C2(NC(=O)c3ccc4c(C5CCCCC5)c5n(c4c3)CCOc3cc(OC)ccc3-5)CCC2)cc1` [Example 2-544, N-{1-[4-((E)-2-methylcarbamoylvinyl)phenylcarbamoyl]cyclobutyl}-12-cyclohexyl-3-methoxy-6,7-dihydro-5-oxa-7a-azadibenzo[a,e]azulene-9-carboxamide], the IC50 is reported as < 100 nM.

Same assay, conditions: read-out: HCV polymerase inhibitory activity IC50; 25° C., 90 min; [5,6-3H]UTP incorporation into RNA
`COc1ccc2c(c1)OCCn1c-2c(C2CCCCC2)c2ccc(C(=O)NC(C)(C)c3ncc(-c4ccc(C(=O)O)cc4)[nH]3)cc21` [Example 2-540, 4-(2-{1-[(12-cyclohexyl-3-methoxy-6,7-dihydro-5-oxa-7a-azadibenzo[a,e]azulene-9-carbonyl)amino]-1-methylethyl}-3H-imidazol-4-yl)benzoic acid monohydrochloride] was tested, and the IC50 was < 100 nM.
